According to publication PMC8480329, “Enzymology and Regulation of δ^1-Pyrroline-5-Carboxylate Synthetase 2 From Rice” (Frontiers in Plant Science, 2021):
Where “and” joins values, the source holds several entries; their conditions need not be identical. Identical values can stand only once. Like-named read-outs stand apart in the source and are kept apart here. Blank lines part the entries; values can stand above or below the molecule they belong to.

Key:
[1] = target: T1, Oryza sativa P5C synthetase 2 (Oryza sativa subsp. japonica, UniProt O04226); assay: NADPH oxidation assay (full forward, physiological reaction of P5C synthetase); conditions: for concentrations found inhibitory (exceeding): level above which activity is reduced; for effect on P5CS2 activity (in words): increasing concentrations, range tested; for Vmax / Km: named substrate varied, Lineweaver-Burk plot; for Vmax: others fixed at 20mM glutamate, 30°C, pH 7.5; for Km: read-out: KM(app), others saturating (20mM glutamate, 4mM ATP, 0.4mM NADPH), ATP value from concentrations ≤4mM
T1 sequence (O04226 1-716): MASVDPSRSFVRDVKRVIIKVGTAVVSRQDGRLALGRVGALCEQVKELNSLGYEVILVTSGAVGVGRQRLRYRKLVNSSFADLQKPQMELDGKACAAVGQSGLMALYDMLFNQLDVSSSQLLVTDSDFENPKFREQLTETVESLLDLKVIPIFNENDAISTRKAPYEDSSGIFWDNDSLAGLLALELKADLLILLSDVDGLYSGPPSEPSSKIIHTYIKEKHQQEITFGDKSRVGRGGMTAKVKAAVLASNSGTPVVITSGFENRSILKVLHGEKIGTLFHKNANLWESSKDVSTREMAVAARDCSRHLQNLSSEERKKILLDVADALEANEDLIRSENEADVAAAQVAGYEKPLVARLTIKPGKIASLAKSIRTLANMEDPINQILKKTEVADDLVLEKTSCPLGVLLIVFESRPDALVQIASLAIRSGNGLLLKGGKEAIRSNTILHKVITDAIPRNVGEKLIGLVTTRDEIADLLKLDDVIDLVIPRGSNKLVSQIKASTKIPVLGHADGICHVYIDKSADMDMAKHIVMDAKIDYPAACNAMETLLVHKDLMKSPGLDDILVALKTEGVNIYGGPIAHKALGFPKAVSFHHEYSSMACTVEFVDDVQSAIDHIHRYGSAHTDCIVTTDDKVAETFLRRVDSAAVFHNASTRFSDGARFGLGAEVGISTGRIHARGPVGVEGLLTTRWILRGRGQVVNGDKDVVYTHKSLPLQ
Protocol: The physiological, forward reaction of P5C synthetase was measured by following the glutamate-dependent oxidation of NADPH in the presence of ATP. Aliquots of the purified enzyme preparations (0.5–1μg protein) were incubated in a final volume of 200μl with 20mML-glutamate, 4mM ATP, and 0.4mM NADPH in 50mM Tris-HCl buffer, pH 7.5. When aiming at the evaluation of the effect of chlorides on enzyme activity, Tris-HCl buffer concentration was lowered to 10mM, or replaced with 10mM potassium phosphate buffer, pH 7.5. Incubation proceeded at 30°C for up to 20min. The decrease of absorbance at 340nm was determined at 0.5min intervals against exact blanks in which glutamate had been omitted. Assays were either performed in cuvettes with 0.2 or 1cm pathlength (UVette; Eppendorf, Milan, Italy), or in 96-microwell plates. In the former case, OD340 was determined with a Novaspec plus spectrophotometer (Amersham Biosciences, Milan, Italy) equipped with an UVette adaptor. In the latter case, the plate was equilibrated at 30°C prior to enzyme addition, and absorbance was measured using a Ledetect plate reader (Labexim, Lengau, Austria) equipped with a LED plugin at 340nm. Each sample was carried out in triplicate (technical replications). Each determination was repeated with at least three different enzyme preparations (biological replications). Presented data refer to a single enzyme preparation, and are means±SE over technical replicates. Linear and non-linear regressions of data, as well as kinetic constant values, were computed using Prism 6 for Windows, version 6.03 (GraphPad Software, San Diego, CA, United States).

[2] = system: P5CS from A. thaliana; set-up: method as in Parre et al., 2010; conditions: half-reaction; ref Parre et al., 2010; cited from earlier work
[3] = system: P5CS from V. aconitifolia; conditions: cited from earlier work; for Km: glutamyl kinase assay, ref Zhang et al., 1995
[4] = substrate: N[C@@H](CCC(=O)O)C(=O)O; assay: purified protein, by the assay type; conditions: other: named substrate varied, others saturating (20mM glutamate, 4mM ATP, 0.4mM NADPH); Lineweaver-Burk plot; ATP value from concentrations ≤4mM; pH 7.5; 30.0 °C
Protocol: The physiological, forward reaction of P5C synthetase was measured by following the glutamate-dependent oxidation of NADPH in the presence of ATP. […] When aiming at the evaluation of the effect of chlorides on enzyme activity, Tris-HCl buffer concentration was lowered to 10mM, or replaced with 10mM potassium phosphate buffer, pH 7.5. Incubation proceeded at 30°C for up to 20min. The decrease of absorbance at 340nm was determined at 0.5min intervals against exact blanks in which glutamate had been omitted. Assays were either performed in cuvettes with 0.2 or 1cm pathlength (UVette; Eppendorf, Milan, Italy), or in 96-microwell plates. In the former case, OD340 was determined with a Novaspec plus spectrophotometer (Amersham Biosciences, Milan, Italy) equipped with an UVette adaptor. In the latter case, the plate was equilibrated at 30°C prior to enzyme addition, and absorbance was measured using a Ledetect plate reader (Labexim, Lengau, Austria) equipped with a LED plugin at 340nm. Each sample was carried out in triplicate (technical replications). Each determination was repeated with at least three different enzyme preparations (biological replications). […] Linear and non-linear regressions of data, as well as kinetic constant values, were computed using Prism 6 for Windows, version 6.03 (GraphPad Software, San Diego, CA, United States).

[5] = IC50 (concentration inhibiting activity by 50%)
[6] = read-out: IC50 (concentration inhibiting activity by 50%), cations, added as chlorides, 10mM potassium phosphate buffer pH 7.5, Mg++ data relative to equimolar NaCl
[7] = IC50 (concentration inhibiting activity by 50%), 20mM glutamate, 4mM ATP, 0.4mM NADPH, 50mM Tris-HCl pH 7.5, 30°C, non-linear regression
[8] = read-out: IC50 (concentration inhibiting activity by 50%), 20mM glutamate, 4mM ATP, 0.4mM NADPH, 50mM Tris-HCl pH 7.5, 30°C, non-linear regression

Molecule: NCCC[C@H](N)C(=O)O [ornithine]
IC50 [1, 5]: 52.6 mM | concentrations found inhibitory (exceeding) [1]: exceeding 2 mM

Molecule: O=P(O)(O)O [HPO4^−−]
concentrations found inhibitory (exceeding) [1]: higher than 20 mM

Molecule: [Ca+2] [Ca^++]
effect on P5CS2 activity (in words) [1]: strong inhibitory effect | IC50 [1, 6]: 4.09 mM

Molecule: O=C(O)C1CCN1 (stereo not drawn) [azetidine-2-carboxylic acid]
IC50 [1, 7]: 11 mM | IC50 relative to proline (fold higher) ([1]; versus IC50 of L-proline): 3.8 fold

Molecule: O=C(O)[C@@H]1CC(O)CN1 (stereo partly drawn) [L-4-hydroxyproline]
IC50 [1, 7]: 89.5 mM | effect on P5CS2 activity (in words) [1]: partial inhibition

Molecule: NC(=O)CC[C@H](N)C(=O)O [glutamine]
IC50 [1]: 89.7 mM | concentrations found inhibitory (exceeding) [1]: exceeding 10 mM

Molecule: NC(=O)c1ccc[n+]([C@@H]2O[C@H](COP(=O)([O-])OP(=O)(O)OC[C@H]3O[C@@H](n4cnc5c(N)ncnc54)[C@H](O)[C@@H]3O)[C@@H](O)[C@H]2O)c1 [NAD^+]
effect on P5CS2 activity (in words) [1]: completely ineffective

Molecule: NC(=O)c1ccc[n+]([C@@H]2O[C@H](COP(=O)([O-])OP(=O)(O)OC[C@H]3O[C@@H](n4cnc5c(N)ncnc54)[C@H](OP(=O)(O)O)[C@@H]3O)[C@@H](O)[C@H]2O)c1 [NADP^+]
IC50 [1, 8]: 0.4 mM and 0.389 mM

Molecule: O=C(O)[C@@H]1CCCN1 [L-proline]
catalytic rate retained ([1]; 10mM proline): less than 20% | IC50 [1, 5]: 2.91 mM | IC50 ([3]; ref Hu et al., 1992, read-out: concentration giving 50%-inhibition): 6 mM

Molecule: O=P(O)(O)C1CCCN1 (stereo not drawn) [phosphonoproline]
IC50 [1, 7]: 42.2 mM | effect on P5CS2 activity (in words) [1]: partial inhibition

Molecule: NC(=O)C1=CN([C@@H]2O[C@H](COP(=O)(O)OP(=O)(O)OC[C@H]3O[C@@H](n4cnc5c(N)ncnc54)[C@H](OP(=O)(O)O)[C@@H]3O)[C@@H](O)[C@H]2O)C=CC1 [NADPH]
Vmax ([1]; 4mM ATP, 0.4mM NADPH): 18.36±0.64 nkat (mg protein)^−1 | Km [1]: 45 ± 4 µM

Molecule: N[C@@H](CCC(=O)O)C(=O)O [L-Glu, L-glutamate]
Vmax ([1]; 4mM ATP, 0.4mM NADPH): 17.38±0.52 nkat (mg protein)^−1 | Km [3]: 3600 µM

Molecule: [Mg+2] [Mg^++]
inhibition of activity ([1]; Mg++ ions at 20mM): 25% | effect on P5CS2 activity (in words) [1]: strong inhibitory effect | IC50 [1, 6]: 34.8 mM

Molecule: O=C(O)CCC(=O)C(=O)O [α-ketoglutarate]
effect on P5CS2 activity up to 100mM (in words) [1]: ineffective

Molecule: O=C(O)C1CCC=N1 (stereo not drawn) [P5C, δ^1-pyrroline-5-carboxylate]
effect on P5CS2 activity (in words) [1]: did not exert any significant effect

Molecule: NC(=O)C1=CN([C@@H]2O[C@H](COP(=O)(O)OP(=O)(O)OC[C@H]3O[C@@H](n4cnc5c(N)ncnc54)[C@H](O)[C@@H]3O)[C@@H](O)[C@H]2O)C=CC1 [NADH]
utilization as electron donor instead of NADPH ([1]; highest concentration tested 0.5mM): No detectable utilization

B1: Oryza sativa P5C synthetase 2 (Oryza sativa Japonica Group) (protein)
chain: MASVDPSRSFVRDVKRVIIKVGTAVVSRQDGRLALGRVGALCEQVKELNSLGYEVILVTSGAVGVGRQRLRYRKLVNSSFADLQKPQMELDGKACAAVGQSGLMALYDMLFNQLDVSSSQLLVTDSDFENPKFREQLTETVESLLDLKVIPIFNENDAISTRKAPYEDSSGIFWDNDSLAGLLALELKADLLILLSDVDGLYSGPPSEPSSKIIHTYIKEKHQQEITFGDKSRVGRGGMTAKVKAAVLASNSGTPVVITSGFENRSILKVLHGEKIGTLFHKNANLWESSKDVSTREMAVAARDCSRHLQNLSSEERKKILLDVADALEANEDLIRSENEADVAAAQVAGYEKPLVARLTIKPGKIASLAKSIRTLANMEDPINQILKKTEVADDLVLEKTSCPLGVLLIVFESRPDALVQIASLAIRSGNGLLLKGGKEAIRSNTILHKVITDAIPRNVGEKLIGLVTTRDEIADLLKLDDVIDLVIPRGSNKLVSQIKASTKIPVLGHADGICHVYIDKSADMDMAKHIVMDAKIDYPAACNAMETLLVHKDLMKSPGLDDILVALKTEGVNIYGGPIAHKALGFPKAVSFHHEYSSMACTVEFVDDVQSAIDHIHRYGSAHTDCIVTTDDKVAETFLRRVDSAAVFHNASTRFSDGARFGLGAEVGISTGRIHARGPVGVEGLLTTRWILRGRGQVVNGDKDVVYTHKSLPLQ
Km [4]: 2690 ± 190 µM

Further lines, with some results ahead:

effect on P5CS2 activity up to 100mM (in words) [1]: unable to interfere
Molecule: O=C(O)[C@H]1CCCN1 [D-proline]

effect on P5CS2 activity up to 100mM (in words) [1]: ineffective
Molecule: NC(=O)C[C@H](N)C(=O)O [Asparagine]

concentrations found inhibitory (exceeding) [1]: exceeding 4 mM | Vmax ([1]; 4mM ATP, 0.4mM NADPH): 17.96±0.46 nkat (mg protein)^−1 | Ki ([1]; read-out: KI value for ATP (substrate inhibition), fit to substrate inhibition model, 20mM glutamate, 0.4mM NADPH): 11.6 ± 5.1 mM | Km [1]: 760 µM and 764 µM
Molecule: Nc1ncnc2c1ncn2[C@@H]1O[C@H](COP(=O)(O)OP(=O)(O)OP(=O)(O)O)[C@@H](O)[C@H]1O [ATP]
Km [2]: 1500 µM | Km [3]: 2700 µM

stimulation of P5CS2 activity ([1]; chlorides in the 10–100mM range): up to 40% | concentration range with stimulatory effect ([1]; chlorides of various cations): 10 to 100 mM
Molecule: Cl [chloride anions]

concentrations found inhibitory (exceeding) [1]: > 4 mM | IC50 [1, 8]: 9 mM and 9.06 mM
Molecule: Nc1ncnc2c1ncn2[C@@H]1O[C@H](COP(=O)(O)OP(=O)(O)O)[C@@H](O)[C@H]1O [ADP]

IC50 [1]: 63.9 mM
Molecule: N=C(N)NCCC[C@H](N)C(=O)O [arginine]

effect on P5CS2 activity (in words) [1]: completely ineffective
Molecule: O=C(O)[C@@H]1CCCCN1 [Pipecolate, pipecolic acid]

effect on P5CS2 activity (in words) [1]: did not exert any significant effect
Molecule: O=P(O)(O)O [inorganic phosphate]

concentrations found inhibitory (exceeding) [1]: exceeding 100 mM
Molecule: [Na+] [sodium cations]
